Data taken from paper PMC12521615, “Accurate affinity models for SH2 domains from peptide binding assays and free‐energy regression” (Protein Science : A Publication of the Protein Society, 2025).
Non-standard residues stand in square brackets, D forms with d. Residues, ends and D or L forms follow the SMILES beside them. pY = N[C@@H](Cc1ccc(OP(=O)(O)O)cc1)C(=O)O

Key:
Assay type in all cases: binding
c-Src SH2 domain = biological target: T1, c-Src SH2 domain (Homo sapiens, UniProt P12931); assay: competitive fluorescence polarization, c-Src SH2 domain; settings: Table S3, unpaired validation; competition fluorescence polarization; probe FITC-Ahx-GDG-pY-EEISPLLL-NH2 30 nM; [SH2] 123-126 nM; mean
T1 construct: the SH2 domain from c‐Src kinase; His6-SUMO (N, cleaved yes); host or cells: Escherichia coli C43(DE3) with BirA helper plasmid
T1 sequence (P12931 151-248 limits assumed): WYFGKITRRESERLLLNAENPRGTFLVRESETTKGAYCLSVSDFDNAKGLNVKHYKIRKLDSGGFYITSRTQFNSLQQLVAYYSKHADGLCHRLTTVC
Description: Measured binding constants (K D) from competition mode fluorescence polarization experiments were obtained using the purified SH2 domains used for the selection and chosen sets of peptides with a phosphorylated tyrosine exactly as described previously (Li et al., [2023]). […] Before performing the competition mode fluorescence polarization measurement, the K D of the probes for the respective SH2 domains was first measured in a direct mode of fluorescence polarization. […] Using the validation data for the Fyn SH2 domain, the range of predicted relative binding affinities that corresponds to the range between 1 nM and 100 μM, which is the dynamic range of reliable measurement of absolute binding affinities using our competitive fluorescence polarization setup, was defined and used to further filter the set of candidate phosphopeptides. A subset that evenly covers the chosen range of predicted relative affinities was finally picked for the validation measurements of the Lyn SH2 domain.

Lyn SH2 domain = biological target: T2, Lyn SH2 domain (Homo sapiens, UniProt P07948); assay: competitive fluorescence polarization, Lyn SH2 domain; settings: Table S3, unpaired validation; competition fluorescence polarization; probe FITC-Ahx-GDG-pY-EEISPLLL-NH2 30 nM; [SH2] 106 nM; mean
T2 construct: The human SH2 domains from Fyn (142–248), Lyn (121–228); His6-SUMO (N, cleaved yes); host or cells: Escherichia coli C43(DE3) with BirA helper plasmid
T2 sequence (P07948 121-228): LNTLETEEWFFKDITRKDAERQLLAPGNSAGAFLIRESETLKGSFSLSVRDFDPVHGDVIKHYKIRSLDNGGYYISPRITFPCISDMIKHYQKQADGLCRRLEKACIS
Description: First, we generated bacterial display datasets and affinity models for three additional SH2 domains from Src‐family kinases Lyn, Blk, and Yes (Figure 5a). For validation of the affinity model for Lyn, we selected a subset of phosphopeptides that were likely to fall within the dynamic range of the competitive fluorescence polarization assay (see “Methods” for details). […] We measured binding affinities to the corresponding phosphopeptides by fluorescence polarization.
The human SH2 domains from Fyn (142–248), Lyn (121–228), Blk (116–222), and Yes (150–257) kinases were PCR‐amplified from plasmids encoding the full‐length proteins and cloned using the NEBuilder® HiFi DNA Assembly Master Mix (NEB) in a pET plasmid backbone that was PCR‐amplified with the primers pETXbaI_for and pETXhoI_rev (these and all other primers are defined in Table S7) from the pET‐His6‐SUMO‐Grb2(SH2), as reported before (Li et al., [2023]), thus adding an N‐terminal His6‐SUMO tag and a C‐terminal AviTag® for biotinylation. The SH2 plasmids are available via Addgene: pET28‐His6‐SUMO‐Fyn‐SH2‐AviTag (214202), pET28‐His6‐SUMO‐Blk‐SH2‐AviTag (214204), pET28‐His6‐SUMO‐Lyn‐SH2‐AviTag (214207), pET28‐His6‐SUMO‐Yes‐SH2‐AviTag (214208), and pET28‐His6‐SUMO‐cSrc‐SH2‐AviTag (214230). For expression and parallel biotinylating of the SH2 domain product, Escherichia coli C43(DE3) cells carrying a BirA encoding helper plasmid were transformed with the respective SH2 domain expression construct and plated to grow overnight at 37°C on a streptomycin and kanamycin (100 μg/mL both) LB‐agar plate. The colonies were collected in 10 mL of TB medium and used to inoculate 1 L of TB medium and grown at 37°C and 215 rpm. Upon reaching an OD600 of 0.5, the expression of the SH2 domains was induced by adding IPTG up to 0.5 mM and biotin up to 250 μM, and the expressing culture was incubated at 18°C for 16–18 h. After removing the medium through centrifugation, the cell pellets were snap‐frozen in liquid N2 and stored at −80°C until purification. To purify the biotinylated SH2 domains, the cell pellets were resuspended in lysis buffer (50 mM Tris, pH 7.5, 300 mM NaCl, 20 mM imidazole, 10% glycerol), supplementing them with 2 mM β‐mercaptoethanol and 1× protease inhibitor cocktail before lysis by sonication (Fisherbrand Sonic Dismembrator). The soluble fraction separated after centrifugation at 33,000 g was run on a HisTrap HP column (Cytiva), then washed with 10 CV of the lysis buffer followed by 10 CV of wash buffer (50 mM Tris, pH 7.5, 50 mM NaCl, 10 mM imidazole, 10% glycerol). Next, the protein was eluted with elution buffer (50 mM Tris, pH 7.5, 50 mM NaCl, 250 mM imidazole, 10% glycerol) directly onto a 5 mL HiTrap Q HP anion exchange column (Cytiva). The biotinylated SH2 domain was then eluted from the anion exchange column with an NaCl gradient (50 mM Tris, pH 7.5, 0.05–1 M NaCl, 1 mM TCEP‐HCl), and the His6‐SUMO tag was cleaved using 0.05 mg/mL Ulp1 protease. The biotinylated SH2 domain was then collected in a flowthrough after running the cleavage reaction over a HisTrap HP column. Finally, the biotinylated SH2 domain in the flowthrough was run on a HiLoad 16/600 Superdex 75 pg size exclusion column (Cytiva) in storage buffer (20 mM HEPES, pH 7.5, 150 mM NaCl, 10% glycerol).

Fyn SH2 domain = biological target: T3, Fyn SH2 domain (Homo sapiens, UniProt P06241); assay: biochemical
T3 construct: The human SH2 domains from Fyn (142–248), Lyn (121–228); His6-SUMO (N, cleaved yes); host or cells: Escherichia coli C43(DE3) with BirA helper plasmid
T3 sequence (P06241 142-248): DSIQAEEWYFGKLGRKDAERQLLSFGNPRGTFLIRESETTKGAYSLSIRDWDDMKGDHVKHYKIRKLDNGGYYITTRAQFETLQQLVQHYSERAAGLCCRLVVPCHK
Description: The human SH2 domains from Fyn (142–248), Lyn (121–228), Blk (116–222), and Yes (150–257) kinases were PCR‐amplified from plasmids encoding the full‐length proteins and cloned using the NEBuilder® HiFi DNA Assembly Master Mix (NEB) in a pET plasmid backbone that was PCR‐amplified with the primers pETXbaI_for and pETXhoI_rev (these and all other primers are defined in Table S7) from the pET‐His6‐SUMO‐Grb2(SH2), as reported before (Li et al., [2023]), thus adding an N‐terminal His6‐SUMO tag and a C‐terminal AviTag® for biotinylation. The SH2 plasmids are available via Addgene: pET28‐His6‐SUMO‐Fyn‐SH2‐AviTag (214202), pET28‐His6‐SUMO‐Blk‐SH2‐AviTag (214204), pET28‐His6‐SUMO‐Lyn‐SH2‐AviTag (214207), pET28‐His6‐SUMO‐Yes‐SH2‐AviTag (214208), and pET28‐His6‐SUMO‐cSrc‐SH2‐AviTag (214230). For expression and parallel biotinylating of the SH2 domain product, Escherichia coli C43(DE3) cells carrying a BirA encoding helper plasmid were transformed with the respective SH2 domain expression construct and plated to grow overnight at 37°C on a streptomycin and kanamycin (100 μg/mL both) LB‐agar plate. The colonies were collected in 10 mL of TB medium and used to inoculate 1 L of TB medium and grown at 37°C and 215 rpm. Upon reaching an OD600 of 0.5, the expression of the SH2 domains was induced by adding IPTG up to 0.5 mM and biotin up to 250 μM, and the expressing culture was incubated at 18°C for 16–18 h. After removing the medium through centrifugation, the cell pellets were snap‐frozen in liquid N2 and stored at −80°C until purification. To purify the biotinylated SH2 domains, the cell pellets were resuspended in lysis buffer (50 mM Tris, pH 7.5, 300 mM NaCl, 20 mM imidazole, 10% glycerol), supplementing them with 2 mM β‐mercaptoethanol and 1× protease inhibitor cocktail before lysis by sonication (Fisherbrand Sonic Dismembrator). The soluble fraction separated after centrifugation at 33,000 g was run on a HisTrap HP column (Cytiva), then washed with 10 CV of the lysis buffer followed by 10 CV of wash buffer (50 mM Tris, pH 7.5, 50 mM NaCl, 10 mM imidazole, 10% glycerol). Next, the protein was eluted with elution buffer (50 mM Tris, pH 7.5, 50 mM NaCl, 250 mM imidazole, 10% glycerol) directly onto a 5 mL HiTrap Q HP anion exchange column (Cytiva). The biotinylated SH2 domain was then eluted from the anion exchange column with an NaCl gradient (50 mM Tris, pH 7.5, 0.05–1 M NaCl, 1 mM TCEP‐HCl), and the His6‐SUMO tag was cleaved using 0.05 mg/mL Ulp1 protease. The biotinylated SH2 domain was then collected in a flowthrough after running the cleavage reaction over a HisTrap HP column. Finally, the biotinylated SH2 domain in the flowthrough was run on a HiLoad 16/600 Superdex 75 pg size exclusion column (Cytiva) in storage buffer (20 mM HEPES, pH 7.5, 150 mM NaCl, 10% glycerol). The purified biotinylated SH2 domains were aliquoted, snap‐frozen in liquid N2, and stored at −80°C.
Measured binding constants (K D) from competition mode fluorescence polarization experiments were obtained using the purified SH2 domains used for the selection and chosen sets of peptides with a phosphorylated tyrosine exactly as described previously (Li et al., [2023]). […] (c‐Src SH2 consensus) was used as the probe, and for the Grb2 SH2 domain, the fluorescently labeled peptide FITC‐Ahx‐FDDPS(pY)VNVQN (Ahx = 6‐aminohexanoic acid) from the Y177 phospho‐tyrosine site of BCR. Before performing the competition mode fluorescence polarization measurement, the K D of the probes for the respective SH2 domains was first measured in a direct mode of fluorescence polarization.

Compound	Kd (c-Src SH2 domain) [nM]	Kd (Lyn SH2 domain) [nM]	Kd (Fyn SH2 domain) [nM]
CC[C@H](C)[C@H](NC(=O)[C@H](CC(=O)O)NC(=O)[C@H](CC(=O)O)NC(=O)[C@H](Cc1ccc(OP(=O)(O)O)cc1)NC(=O)[C@@H](NC(=O)[C@H](CCC(=O)O)NC(=O)CNC(=O)[C@H](CC(=O)O)NC(=O)[C@H](CC(N)=O)NC(=O)[C@H](CCC(N)=O)NC(C)=O)[C@@H](C)CC)C(=O)N[C@@H](C)C(=O)N[C@@H](CC(=O)O)C(=O)NCC(N)=O [SLAP-130 pY771] (Ac-QNDGEI[pY]DDIADG-NH2)	94	96.8	–
CC[C@H](C)[C@H](NC(=O)[C@H](CCC(=O)O)NC(=O)[C@H](CO)NC(=O)[C@H](Cc1ccc(OP(=O)(O)O)cc1)NC(=O)[C@H](CCC(=O)O)NC(=O)[C@@H](NC(=O)[C@@H](NC(=O)[C@H](CO)NC(=O)[C@@H]1CCCN1C(=O)[C@H](CCC(N)=O)NC(C)=O)[C@@H](C)O)[C@@H](C)O)C(=O)N[C@@H](CCCCN)C(=O)N[C@H](C(=O)NCC(N)=O)[C@@H](C)O [SIGLEC5 pY544] (Ac-QPSTTE[pY]SEIKTG-NH2)	282	362	–
CC(=O)N[C@@H](CCC(N)=O)C(=O)NCC(=O)N[C@@H](CCCNC(=N)N)C(=O)N[C@@H](CCCNC(=N)N)C(=O)N[C@@H](CCC(=O)O)C(=O)N[C@@H](CCC(=O)O)C(=O)N[C@@H](Cc1ccc(OP(=O)(O)O)cc1)C(=O)N[C@@H](CC(=O)O)C(=O)N[C@H](C(=O)N[C@@H](CC(C)C)C(=O)N[C@@H](CC(=O)O)C(=O)N[C@@H](CCCCN)C(=O)NCC(N)=O)C(C)C [CD3Z pY83] (Ac-QGRREE[pY]DVLDKG-NH2)	–	2950	–
CC[C@H](C)[C@H](NC(=O)[C@H](CCC(=O)O)NC(=O)[C@H](CC(=O)O)NC(=O)[C@H](Cc1ccc(OP(=O)(O)O)cc1)NC(=O)[C@@H](NC(=O)[C@H](CCCNC(=N)N)NC(=O)[C@H](CO)NC(=O)[C@H](CCC(=O)O)NC(=O)[C@H](C)NC(=O)[C@H](CCC(N)=O)NC(C)=O)[C@@H](C)CC)C(=O)N[C@@H](CC(C)C)C(=O)N[C@@H](CCC(N)=O)C(=O)NCC(N)=O [CD84 pY296] (Ac-QAESRI[pY]DEILQG-NH2)	28.1	91	–
CC(=O)N[C@@H](CCC(N)=O)C(=O)N[C@@H](CCC(=O)O)C(=O)N[C@@H](Cc1c[nH]c2ccccc12)C(=O)N[C@@H](CCCNC(=N)N)C(=O)N[C@@H](CO)C(=O)N[C@@H](CCC(N)=O)C(=O)N[C@@H](Cc1ccc(OP(=O)(O)O)cc1)C(=O)N[C@@H](CCC(=O)O)C(=O)N[C@@H](C)C(=O)N[C@@H](CC(C)C)C(=O)N[C@@H](CCCCN)C(=O)N[C@@H](CCC(=O)O)C(=O)NCC(N)=O [TRAF3IP3 pY322] (Ac-QEWRSQ[pY]EALKEG-NH2)	6480	3940	–
CC[C@H](C)[C@H](NC(=O)[C@H](CC(N)=O)NC(=O)[C@H](CCCCN)NC(=O)[C@H](Cc1ccc(OP(=O)(O)O)cc1)NC(=O)[C@H](CC(=O)O)NC(=O)[C@@H](NC(=O)CNC(=O)CNC(=O)[C@H](CCC(=O)O)NC(=O)[C@H](CCC(N)=O)NC(C)=O)C(C)C)C(=O)N[C@@H](Cc1c[nH]cn1)C(=O)N[C@@H](CC(C)C)C(=O)NCC(N)=O [CSF1R pY699] (Ac-QEGGVD[pY]KNIHLG-NH2)	–	22800	–
CC(=O)N[C@@H](CCC(N)=O)C(=O)N[C@@H](Cc1c[nH]cn1)C(=O)N[C@@H](CCCCN)C(=O)N[C@@H](CCC(=O)O)C(=O)N[C@@H](CC(=O)O)C(=O)N[C@H](C(=O)N[C@@H](Cc1ccc(OP(=O)(O)O)cc1)C(=O)N[C@@H](CCC(=O)O)C(=O)N[C@@H](CC(N)=O)C(=O)N[C@@H](CC(C)C)C(=O)N[C@@H](Cc1c[nH]cn1)C(=O)N[C@H](C(=O)NCC(N)=O)[C@@H](C)O)C(C)C [PTPN6 pY564] (Ac-QHKEDV[pY]ENLHTG-NH2)	909	943	–
CC[C@H](C)[C@H](NC(=O)CNC(=O)[C@H](CCC(=O)O)NC(=O)[C@@H](NC(=O)[C@H](CCC(N)=O)NC(C)=O)C(C)C)C(=O)N[C@@H](CO)C(=O)N[C@@H](Cc1ccc(OP(=O)(O)O)cc1)C(=O)N[C@@H](CC(=O)O)C(=O)N[C@@H](Cc1ccccc1)C(=O)N[C@H](C(=O)N1CCC[C@H]1C(=O)N[C@H](C(=O)NCC(N)=O)[C@@H](C)O)[C@@H](C)CC [CBS pY308 G307S] (Ac-QVEGIS[pY]DFIPTG-NH2)	–	–	185
